For four compounds, Kd results are on record in PMC11046469, “Leveraging a Phage-Encoded Noncanonical Amino Acid: A Novel Pathway to Potent and Selective Epigenetic Reader Protein Inhibitors” (ACS Central Science, 2024).

pKd: −log10 of the molar value. Where a SMILES comes first, the peptide text is derived from it. The star is where a group is joined. Oxazole(5-CO) = O=C(c1cnco1)*; Crotonyl(E) = C/C=C/C(=O)*; 2Furoyl = O=C(c1ccco1)*; Butyryl = CCCC(=O)*

For the assay, the target named is T1, AF9 YEATS (His-AF9) (Homo sapiens, UniProt P42568).
T1 construct: His-AF9 (aa 1-149, EpiCypher); purchased EpiCypher
T1 sequence (P42568 1-149): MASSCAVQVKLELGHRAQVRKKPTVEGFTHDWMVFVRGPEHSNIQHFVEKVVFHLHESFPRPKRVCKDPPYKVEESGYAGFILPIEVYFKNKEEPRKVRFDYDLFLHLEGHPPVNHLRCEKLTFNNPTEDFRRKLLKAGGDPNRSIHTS
The experiment in a line: Biolayer interferometry (BLI) binding to AF9 YEATS. The method, then: These potent inhibitors were then tested to confirm their selectivity for ENL YEATS over AF9 YEATS since the two YEATS domains share high sequence and structure homology. One potential of using ncAA-containing phage display for active site-directed ligand search is the possibility of amino acids flanking the ncAA in a selected peptide to selectively engage the target over a close homologue. We wanted to validate this potential as well. Selective targeting of ENL YEATS is also preferred in leukemia interventions as it plays a pivotal role in the progression and maintenance of several AMLs and poses minimal harm to normal hematopoietic stem cells upon inhibition. […] We propose that the selectivity arises from the peptide residues interacting with surface areas adjacent to the active site of ENL YEATS. […] Similarly, BLI analyses were conducted to examine preferential binding of inhibitors to ENL YEATS. […] Two previous publications have documented peptide-based YEATS inhibitors featuring alkylated lysine residues.[42],[43] […]
Biolayer Interferometry to Validate ENL Ligands:
His-ENL, His-AF9 (aa 1-149, EpiCypher), His-GAS41 (aa 15-160, EpiCypher), and YEATS2-His (aa 200-345, EpiCypher) were reconstituted in water and diluted into assay buffer (20mM Tris, 300 mM NaCl, pH 7.9) for immobilization onto Octet Ni-NTA biosensors (Sartorius). Lyophilized peptides were dissolved in DMF and diluted to designated concentrations in assay buffer. Biolayer interferometry assays were performed in 96 well plates (GreinerBio-One, polypropylene, flat-bottom) using an Octet Red96 System (Sartorius). Wells were filled with 200 μL of assay buffer, blocking buffer (assay buffer + 0.1% BSA), protein solution, peptide solution, regeneration solution, and reload solution. For immobilization, His-tagged proteins were immobilized onto Ni-NTA sensors at 20 for 600 s. Sensors were then dipped into blocking buffer for 180 s, assay […] buffer for 300 s, peptide solution for 300 s, and back to assay buffer for 300 s. If multiple samples were tested, Ni-NTA sensors can be reconditioned in regeneration (10 mM glycine, pH 1.7) solution followed by reload solution (10 mM NiCl2) for 30 and 60 s, respectively. Measurements were carried out at 30 °C. Data were analyzed within the ForteBio Data Analysis software. […]
The AlphaScreen assay was carried out in 384-well plates. […] AlphaScreen-signals were detected by a multi-mode microplate reader (BioTeK Synergy Neo2) equipped with an Alpha-laser (PerkinElmer). The KD value was determined from the plot using nonlinear regression of variable slope (four parameters) and curve fitting performed in GraphPad Prism. […]
The AlphaScreen assay conditions are essential the same as the previous described. […] IC50 values were determined from the plot using […]

The term pKd denotes the Kd on a negative log10 scale, so that one unit is a factor of ten. In the case of `CCCC(=O)NCCCC[C@H](NC(=O)[C@H](Cc1ccc(O)cc1)NC(=O)[C@H](CS)NC(=O)[C@H](Cc1ccc(O)cc1)NC(=O)[C@@H](NC(=O)[C@H](CC(=O)O)NC(=O)[C@@H](N)Cc1ccc(O)cc1)C(C)C)C(N)=O` [ENL-S1] (H-YDVYCYK(Butyryl)-NH2), the pKd was 6.69.

As to `C/C=C/C(=O)NCCCC[C@H](NC(=O)[C@H](Cc1ccc(O)cc1)NC(=O)[C@H](CS)NC(=O)[C@H](Cc1ccc(O)cc1)NC(=O)[C@@H](NC(=O)[C@H](CC(=O)O)NC(=O)[C@@H](N)Cc1ccc(O)cc1)C(C)C)C(N)=O` [ENL-S1c] (H-YDVYCYK(Crotonyl(E))-NH2), the negative-log Kd (pKd) is 6.83.

With `CC(C)[C@H](NC(=O)[C@H](CC(=O)O)NC(=O)[C@@H](N)Cc1ccc(O)cc1)C(=O)N[C@@H](Cc1ccc(O)cc1)C(=O)N[C@@H](CS)C(=O)N[C@@H](Cc1ccc(O)cc1)C(=O)N[C@@H](CCCCNC(=O)c1ccco1)C(N)=O` [ENL-S1f] (H-YDVYCYK(2Furoyl)-NH2), the negative logarithm of the Kd (pKd) is 6.84.

Consider `CC(C)[C@H](NC(=O)[C@H](CC(=O)O)NC(=O)[C@@H](N)Cc1ccc(O)cc1)C(=O)N[C@@H](Cc1ccc(O)cc1)C(=O)N[C@@H](CS)C(=O)N[C@@H](Cc1ccc(O)cc1)C(=O)N[C@@H](CCCCNC(=O)c1cnco1)C(N)=O` [ENL-S1o] (H-YDVYCYK(Oxazole(5-CO))-NH2), for which the negative logarithm of the Kd (pKd) was 7.26.
